Here are results for twelve compounds from patent US8987195B2 (priority 2012, dated 2015).

For one test, the system named is HCV genotype 1b replicon. Description: HCV replicon assay, genotype 1b replicon EC50. The format is cell-based, Hepatitis C virus. To be noted: Hepatitis C virus, genotype 1b replicon, read-out: EC50 [gt-1b]. The procedure, abridged:
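Cells harbouring a stable replicon are grown under G418 selection, then plated with test compound in G418-free medium for 24-48 hours. After washing and lysis, RNA or luciferase signal is measured and expressed as percent of DMSO control to give EC50.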
Background: A replicon is a self-replicating genome or part of one, used to study replication in cells.

Test [1] concerns the target HCV NS3/4A protease genotype 1b (Hepatitis C virus genotype 1b, UniProt P26663). Description: HCV NS3/4A protease time-resolved fluorescence (TRF) assay, Ki against genotype 1b. The format is biochemical. The note with it: IC50 [gt-1b] (nM), NS3/4A genotype 1b, enzyme 0.2 nM. Put shortly:
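Enzyme 0.2 nM 1b / 0.4 nM A156T / 0.025 nM 3a; 30 min preinc. w/ cpd; 25 nM TRF peptide; 2.5 h RT; ex 340/em 615 time-delayed; 4-param IC50 → Ki = IC50/(1+[S]/KM).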

Each structure is given as a SMILES string. Read-outs that look alike come from different tables or passages of the source.

As for `Cc1nc2ccccc2c2c1O[C@]1(CC2)C[C@H]2C(=O)N[C@]3(C(=O)NS(=O)(=O)C4(C)CC4)C[C@H]3/C=C\CCCCC[C@H](NC(=O)OC(C)(C(F)(F)F)C(F)(F)F)C(=O)N2C1` [Example 307, 1,1,1,3,3,3-hexafluoro-2-methylpropan-2-yl [(2R,6S,12Z,13aS,14aR,16aS)-5′-methyl-14a-{[(1-methylcyclopropyl)sulfonyl]carbamoyl}-5,16-dioxo-1,1′,2′,5,6,7,8,9,10,11,13a,14,14a,15,16,16a-hexadecahydrospiro[cyclopropa[e]pyrrolo[1,2-a][1,4]diazacyclopentadecine-2,3′-pyrano[2,3-c]quinolin]-6-yl]carbamate], the EC50 in the test on HCV genotype 1b replicon turned out to be 1080 nM. In addition, the half-maximal inhibitory concentration (IC50) in test [1] turned out to be 0.019 nM.

Consider `Cc1nc2ccc(OCC(F)(F)F)cc2c2c1O[C@]1(CC2)C[C@H]2C(=O)N[C@]3(C(=O)NS(=O)(=O)C4(C)CC4)C[C@H]3/C=C\CCCCC[C@H](NC(=O)OC(C)(C(F)(F)F)C(F)(F)F)C(=O)N2C1` [Example 308, 1,1,1,3,3,3-hexafluoro-2-methylpropan-2-yl [(2R,6S,12Z,13aS,14aR,16aS)-5′-methyl-14a-{[(1-methylcyclopropyl)sulfonyl]carbamoyl}-5,16-dioxo-9′-(2,2,2-trifluoroethoxy)-1,1′,2′,5,6,7,8,9,10,11,13a,14,14a,15,16,16a-hexadecahydrospiro[cyclopropa[e]pyrrolo[1,2-a][1,4]diazacyclopentadecine-2,3′-pyrano[2,3-c]quinolin]-6-yl]carbamate], for which the concentration for a half-maximal effect (EC50) in the test with HCV genotype 1b replicon amounted to 416 nM. In test [1], this compound registered a 50% inhibitory concentration (IC50) of 0.006 nM.

As to `CC(C)(OC(=O)N[C@H]1CCCCC/C=C\[C@@H]2C[C@@]2(C(=O)NS(=O)(=O)C2(C)CC2)NC(=O)[C@@H]2C[C@]3(CCc4c(c(C(F)F)nc5ccccc45)O3)CN2C1=O)C(F)(F)F` [Example 309, 1,1,1-trifluoro-2-methylpropan-2-yl [(2R,6S,12Z,13aS,14aR,16aS)-5′-(difluoromethyl)-14a-{[(1-methylcyclopropyl)sulfonyl]carbamoyl}-5,16-dioxo-1,1′,2′,5,6,7,8,9,10,11,13a,14,14a,15,16,16a-hexadecahydrospiro[cyclopropa[e]pyrrolo[1,2-a][1,4]diazacyclopentadecine-2,3′-pyrano[2,3-c]quinolin]-6-yl]carbamate], the 50% effective concentration (EC50) with HCV genotype 1b replicon amounted to 1.94 nM. The same compound yielded an IC50 in test [1] of 0.01 nM.

As for `Cc1nc2ccc(OC(F)F)cc2c2c1O[C@]1(CC2)C[C@H]2C(=O)N[C@]3(C(=O)NS(=O)(=O)C4(C)CC4)C[C@H]3/C=C\CCCCC[C@H](NC(=O)OC(C)(C)C(F)(F)F)C(=O)N2C1` [Example 310, 1,1,1-trifluoro-2-methylpropan-2-yl [(2R,6S,12Z,13aS,14aR,16aS)-9′-(difluoromethoxy)-5′-methyl-14a-{[(1-methylcyclopropyl)sulfonyl]carbamoyl}-5,16-dioxo-1,1′,2′,5,6,7,8,9,10,11,13a,14,14a,15,16,16a-hexadecahydrospiro[cyclopropa[e]pyrrolo[1,2-a][1,4]diazacyclopentadecine-2,3′-pyrano[2,3-c]quinolin]-6-yl]carbamate], the EC50 in the test on HCV genotype 1b replicon (K+ salt) is 5.66 nM. For the same compound, the 50% inhibitory concentration (IC50) in test [1] (K+ salt) came out at 0.008 nM.

As to `CC(C)(C)COC(=O)N[C@H]1CCCCC/C=C\[C@@H]2C[C@@]2(C(=O)NS(=O)(=O)C2(C)CC2)NC(=O)[C@@H]2C[C@]3(CCc4c(c(C(F)F)nc5ccccc45)O3)CN2C1=O` [Example 311, 2,2-dimethylpropyl [(2R,6S,12Z,13aS,14aR,16aS)-5′-(difluoromethyl)-14a-{[(1-methylcyclopropyl)sulfonyl]carbamoyl}-5,16-dioxo-1,1′,2′,5,6,7,8,9,10,11,13a,14,14a,15,16,16a-hexadecahydrospiro[cyclopropa[e]pyrrolo[1,2-a][1,4]diazacyclopentadecine-2,3′-pyrano[2,3-c]quinolin]-6-yl]carbamate], the half-maximal effective concentration (EC50) in the test with HCV genotype 1b replicon amounted to 1.23 nM. The IC50 in test [1] was determined as 0.008 nM.

Turning to `CCc1nc2ccc(OC)cc2c2c1O[C@]1(CC2)C[C@H]2C(=O)N[C@]3(C(=O)NS(=O)(=O)C4(C)CC4)C[C@H]3/C=C\CCCCC[C@H](NC(=O)OC(C)(C)C)C(=O)N2C1` [Example 312, tert-butyl [(2R,6S,12Z,13aS,14aR,16aS)-5′-ethyl-9′-methoxy-14a-{[(1-methylcyclopropyl)sulfonyl]carbamoyl}-5,16-dioxo-1,1′,2′,5,6,7,8,9,10,11,13a,14,14a,15,16,16a-hexadecahydrospiro[cyclopropa[e]pyrrolo[1,2-a][1,4]diazacyclopentadecine-2,3′-pyrano[2,3-c]quinolin]-6-yl]carbamate], the EC50 in the test with HCV genotype 1b replicon turned out to be 3.56 nM. Further, half-maximal inhibition in test [1] (IC50) was put at 0.009 nM.

Consider `CCc1ccc2nc(C)c3c(c2c1)CC[C@]1(C[C@H]2C(=O)N[C@]4(C(=O)NS(=O)(=O)C5(C)CC5)C[C@H]4/C=C\CCCCC[C@H](NC(=O)OC(C)(C)C)C(=O)N2C1)O3` [Example 313, tert-butyl [(2R,6S,12Z,13aS,14aR,16aS)-9′-ethyl-5′-methyl-14a-{[(1-methylcyclopropyl)sulfonyl]carbamoyl}-5,16-dioxo-1,1′,2′,5,6,7,8,9,10,11,13a,14,14a,15,16,16a-hexadecahydrospiro[cyclopropa[e]pyrrolo[1,2-a][1,4]diazacyclopentadecine-2,3′-pyrano[2,3-c]quinolin]-6-yl]carbamate], for which the EC50 in the test with HCV genotype 1b replicon was determined as 2.87 nM. Moreover, half-maximal inhibition in test [1] (IC50) was put at 0.016 nM.

For the compound `CCc1ccc2nc(C)c3c(c2c1)CC[C@]1(C[C@H]2C(=O)N[C@]4(C(=O)NS(=O)(=O)C5(C)CC5)C[C@H]4/C=C\CCCCC[C@H](NC(=O)OC(C)(C)C(F)(F)F)C(=O)N2C1)O3` [Example 314, 1,1,1-trifluoro-2-methylpropan-2-yl [(2R,6S,12Z,13aS,14aR,16aS)-9′-ethyl-5′-methyl-14a-{[(1-methylcyclopropyl)sulfonyl]carbamoyl}-5,16-dioxo-1,1′,2′,5,6,7,8,9,10,11,13a,14,14a,15,16,16a-hexadecahydrospiro[cyclopropa[e]pyrrolo[1,2-a][1,4]diazacyclopentadecine-2,3′-pyrano[2,3-c]quinolin]-6-yl]carbamate], in the test with HCV genotype 1b replicon, the half-maximal effective concentration (EC50) came out at 8.74 nM. Moreover, 0.013 nM corresponded to half-maximal inhibition in test [1] (IC50).

As to `CC(C)OC(=O)N[C@H]1CCCCC/C=C\[C@@H]2C[C@@]2(C(=O)NS(=O)(=O)C2(C)CC2)NC(=O)[C@@H]2C[C@]3(CCc4c(c(C(F)F)nc5ccccc45)O3)CN2C1=O` [Example 317, propan-2-yl [(2R,6S,12Z,13aS,14aR,16aS)-5′-(difluoromethyl)-14a-{[(1-methylcyclopropyl)sulfonyl]carbamoyl}-5,16-dioxo-1,1′,2′,5,6,7,8,9,10,11,13a,14,14a,15,16,16a-hexadecahydrospiro[cyclopropa[e]pyrrolo[1,2-a][1,4]diazacyclopentadecine-2,3′-pyrano[2,3-c]quinolin]-6-yl]carbamate], the concentration for a half-maximal effect (EC50) with HCV genotype 1b replicon came out at 3.25 nM. For the same compound, half-maximal inhibition in test [1] (IC50) required 0.023 nM.

Consider `COc1ccc2nc(C)c3c(c2n1)CC[C@]1(C[C@H]2C(=O)N[C@]4(C(=O)NS(=O)(=O)C5(C)CC5)C[C@H]4/C=C\CCCCC[C@H](NC(=O)OC(C)(C)C(F)(F)F)C(=O)N2C1)O3` [Example 318, 1,1,1-trifluoro-2-methylpropan-2-yl [(2R,6S,12Z,13aS,14aR,16aS)-2′-methoxy-6′-methyl-14a-{[(1-methylcyclopropyl)sulfonyl]carbamoyl}-5,16-dioxo-1,5,6,7,8,9,9′,10,10′,11,13a,14,14a,15,16,16a-hexadecahydrospiro[cyclopropa[e]pyrrolo[1,2-a][1,4]diazacyclopentadecine-2,8′-pyrano[2,3-c][1,5]naphthyridin]-6-yl]carbamate], for which, in the test on HCV genotype 1b replicon, the concentration giving a half-maximal response (EC50) amounted to 4.99 nM. Besides, the half-maximal inhibitory concentration (IC50) in test [1] worked out at 0.013 nM.

On to `Cc1nc2ccc(C(F)(F)F)cc2c2c1O[C@]1(CC2)C[C@H]2C(=O)N[C@]3(C(=O)NS(=O)(=O)C4(C)CC4)C[C@H]3/C=C\CCCCC[C@H](NC(=O)OC(C)(C)C(F)(F)F)C(=O)N2C1` [Example 319, 1,1,1-trifluoro-2-methylpropan-2-yl [(2R,6S,12Z,13aS,14aR,16aS)-5′-methyl-14a-{[(1-methylcyclopropyl)sulfonyl]carbamoyl}-5,16-dioxo-9′-(trifluoromethyl)-1,1′,2′,5,6,7,8,9,10,11,13a,14,14a,15,16,16a-hexadecahydrospiro[cyclopropa[e]pyrrolo[1,2-a][1,4]diazacyclopentadecine-2,3′-pyrano[2,3-c]quinolin]-6-yl]carbamate], for which the EC50 in the test on HCV genotype 1b replicon (K+ salt) was found to be 17.8 nM. Also, the concentration for half-maximal inhibition (IC50) in test [1] (K+ salt) turned out to be 0.044 nM.

Take `Cc1nc2ccccc2c2c1O[C@]1(CC2)C[C@H]2C(=O)N[C@]3(C(=O)NS(=O)(=O)C4(C)CC4)C[C@H]3/C=C\CCCCC[C@H](NC(=O)OC3CC(F)(F)C3(F)F)C(=O)N2C1` (stereo partly drawn) [Example 320, 2,2,3,3-tetrafluorocyclobutyl [(2R,6S,12Z,13aS,14aR,16aS)-5′-methyl-14a-{[(1-methylcyclopropyl)sulfonyl]carbamoyl}-5,16-dioxo-1,1′,2′,5,6,7,8,9,10,11,13a,14,14a,15,16,16a-hexadecahydrospiro[cyclopropa[e]pyrrolo[1,2-a][1,4]diazacyclopentadecine-2,3′-pyrano[2,3-c]quinolin]-6-yl]carbamate]: in the test on HCV genotype 1b replicon, the concentration for a half-maximal effect (EC50) came out at 4.44 nM. This compound also came in with a half-maximal inhibitory concentration (IC50) in test [1] of 0.013 nM.

What is called EC50 is the concentration giving half of the maximal effect. As usually defined, the IC50 is the concentration that gives 50% inhibition.
